Measurements: ChEMBL document CHEMBL1914354, “Design, synthesis and antiepileptic properties of novel 1-(substituted benzylidene)-3-(1-(morpholino/piperidino methyl)-2,3-dioxoindolin-5-yl)urea derivatives” (Eur J Med Chem, 2011)
Activity calls are given as the source filed them. The rule behind the calls is not given here.

What was measured:
Mus musculus [1] = assay: Antiepileptic activity in ip dosed Swiss albino mouse assessed as protection against subcutaneous pentylenetetrazol-induced clonic seizures at 300 mg/kg, ip after 4 hrs; format: functional, organism-based; design: dose 300 mg/kg
Mus musculus [2] = assay: Antiepileptic activity in ip dosed Swiss albino mouse assessed as protection against subcutaneous pentylenetetrazol-induced clonic seizures at 300 mg/kg, ip after 0.5 hrs; format: functional, organism-based; design: dose 300 mg/kg
Mus musculus [3] = assay: Antiepileptic activity in Swiss albino mouse assessed as protection against maximum electric shock-induced seizure at 300 mg/kg, ip after 0.5 hrs; format: functional, organism-based; design: dose 300 mg/kg
Mus musculus [4] = assay: Antiepileptic activity in ip dosed Swiss albino mouse assessed as dose required to protect against maximum electric shock-induced seizure after 4 hrs; format: functional; settings: read-out: MED
Mus musculus [5] = assay: Neurotoxicity in ip dosed Swiss albino mouse assessed as minimal motor impairment at 300 mg/kg, ip after 4 hrs by rotarod test; format: toxicity, organism-based; design: dose 300 mg/kg, route intraperitoneal; settings: in vivo
Mus musculus [6] = assay: Neurotoxicity in Swiss albino mouse assessed as minimal motor impairment at 300 mg/kg, ip after 0.5 hrs by rotarod test; format: toxicity, organism-based; design: dose 300 mg/kg, route intraperitoneal; settings: in vivo
Mus musculus [7] = assay: Antiepileptic activity in Swiss albino mouse assessed as protection against maximum electric shock-induced seizure at 300 mg/kg, ip after 4 hrs; format: functional, organism-based; design: dose 300 mg/kg
Mus musculus [8] = assay: Antiepileptic activity in ip dosed Swiss albino mouse assessed as dose required to protect against subcutaneous pentylenetetrazol-induced clonic seizures after 4 hrs; format: functional; settings: read-out: MED
Mus musculus [9] = assay: Antiepileptic activity in ip dosed Swiss albino mouse assessed as dose required to protect against maximum electric shock-induced seizure after 0.5 hrs; format: functional; settings: read-out: MED
Rattus norvegicus [10] = assay: Antiepileptic activity in Wistar rat assessed as protection against maximum electric shock-induced seizure at 30 mg/kg, po after 2 hrs; format: functional
Rattus norvegicus [11] = assay: Antiepileptic activity in Wistar rat assessed as protection against maximum electric shock-induced seizure at 30 mg/kg, po after 1 hr; format: functional
Rattus norvegicus [12] = assay: Antiepileptic activity in Wistar rat assessed as protection against maximum electric shock-induced seizure at 30 mg/kg, po after 0.5 hrs; format: functional
Rattus norvegicus [13] = assay: Antiepileptic activity in Wistar rat assessed as protection against maximum electric shock-induced seizure at 30 mg/kg, po after 0.25 hrs; format: functional
Mus musculus [14] = assay: Neurotoxicity in ip dosed Swiss albino mouse assessed as dose required for minimal motor impairment after 0.5 hrs by rotarod test; format: toxicity, organism-based; settings: in vivo
Mus musculus [15] = assay: Antiepileptic activity in ip dosed Swiss albino mouse assessed as dose required to protect against subcutaneous pentylenetetrazol-induced clonic seizures after 0.5 hrs; format: functional; settings: read-out: MED
Rattus norvegicus [16] = assay: Antiepileptic activity in Wistar rat assessed as protection against maximum electric shock-induced seizure at 30 mg/kg, po after 4 hrs; format: functional
Rattus norvegicus [17] = assay: Neurotoxicity in Wistar rat assessed as minimal motor impairment at 30 mg/kg, po by rotarod method; format: toxicity, organism-based; design: dose 30 mg/kg, route oral; settings: in vivo
Mus musculus [18] = assay: Neurotoxicity in ip dosed Swiss albino mouse assessed as dose required for minimal motor impairment after 4 hrs by rotarod test; format: toxicity, organism-based; settings: in vivo
Mus musculus [19] = assay: Antiepileptic activity in ip dosed Swiss albino mouse assessed as protection against subcutaneous pentylenetetrazol-induced clonic seizures at 30 to 100 mg/kg, ip after 0.5 hrs; format: functional; settings: sc, dose mg/kg 30-100, read-out: MED

| Structure (SMILES) | Activity (Mus musculus [1]) | Activity (Mus musculus [2]) | Activity (Mus musculus [3]) | minimal effective dose (Mus musculus [4]) [mg/kg] | Activity (Mus musculus [5]) | Activity (Mus musculus [6]) | Activity (Mus musculus [7]) | minimal effective dose (Mus musculus [8]) [mg/kg] | minimal effective dose (Mus musculus [9]) [mg/kg] | Activity (Rattus norvegicus [10]) [%] | Activity (Rattus norvegicus [11]) [%] | Activity (Rattus norvegicus [12]) [%] | Activity (Rattus norvegicus [13]) [%] | MTC (Mus musculus [14]) [mg/kg] | minimal effective dose (Mus musculus [15]) [mg/kg] | Activity (Rattus norvegicus [16]) [%] | Activity (Rattus norvegicus [17]) | MTC (Mus musculus [18]) [mg/kg] | minimal effective dose (Mus musculus [19]) [mg/kg] |
| --- | --- | --- | --- | --- | --- | --- | --- | --- | --- | --- | --- | --- | --- | --- | --- | --- | --- | --- | --- |
| O=C(/N=C/c1cccc([N+](=O)[O-])c1)Nc1ccc2c(c1)C(=O)C(=O)N2CN1CCOCC1 | inactive | inactive | inactive | 300 | – | – | – | – | – | – | – | – | – | – | – | – | – | – | – |
| Cc1ccc(/C=N/C(=O)Nc2ccc3c(c2)C(=O)C(=O)N3CN2CCOCC2)cc1 | – | inactive | – | – | Non-toxic | Non-toxic | inactive | 300 | 300 | – | – | – | – | – | – | – | – | – | – |
| O=C(/N=C/c1ccc(O)cc1)Nc1ccc2c(c1)C(=O)C(=O)N2CN1CCCCC1 | – | inactive | – | – | Non-toxic | Non-toxic | inactive | 300 | 300 | – | – | – | – | – | – | – | – | – | – |
| O=C(/N=C/c1ccccc1)Nc1ccc2c(c1)C(=O)C(=O)N2CN1CCOCC1 | inactive | inactive | inactive | 300 | – | – | – | – | – | – | – | – | – | – | – | – | – | – | – |
| O=C(/N=C/c1ccc(F)cc1)Nc1ccc2c(c1)C(=O)C(=O)N2CN1CCOCC1 | – | – | – | 100 | Non-toxic | – | – | 300 | 30 | 100 | 50 | 50 | 25 | 300 | 100 | 100 | Non-toxic | – | – |
| O=C(/N=C/c1ccc(F)cc1)Nc1ccc2c(c1)C(=O)C(=O)N2CN1CCCCC1 | inactive | – | – | 300 | – | – | – | – | 100 | – | – | – | – | 300 | 100 | – | – | 300 | – |
| O=C(/N=C/c1ccc(Br)cc1)Nc1ccc2c(c1)C(=O)C(=O)N2CN1CCCCC1 | – | inactive | – | 300 | – | – | – | 300 | 30 | 100 | 50 | 50 | 25 | 100 | – | 100 | Non-toxic | 300 | – |
| O=C(/N=C/c1ccccc1Cl)Nc1ccc2c(c1)C(=O)C(=O)N2CN1CCOCC1 | inactive | – | – | 300 | Non-toxic | – | – | – | 100 | – | – | – | – | 300 | 300 | – | – | – | – |
| O=C(/N=C/c1ccccc1)Nc1ccc2c(c1)C(=O)C(=O)N2CN1CCCCC1 | inactive | – | inactive | – | – | – | inactive | – | – | – | – | – | – | – | 300 | – | – | – | – |
| O=C(/N=C/c1ccc(Cl)cc1)Nc1ccc2c(c1)C(=O)C(=O)N2CN1CCCCC1 | inactive | – | – | 300 | – | Non-toxic | – | – | 100 | – | – | – | – | – | 300 | – | – | 300 | – |
| O=C1NC(=O)C(c2ccccc2)(c2ccccc2)N1 [PHENYTOIN] | inactive | inactive | – | 30 | – | – | – | – | 30 | 75 | 75 | 100 | 25 | 100 | – | 75 | Non-toxic | 100 | – |
| O=C(/N=C/c1ccc(Cl)cc1)Nc1ccc2c(c1)C(=O)C(=O)N2CN1CCOCC1 | – | – | – | 100 | Non-toxic | Non-toxic | – | 300 | 30 | 100 | 50 | 50 | 25 | – | 300 | 100 | Non-toxic | – | – |
| O=C(/N=C/c1ccccc1Cl)Nc1ccc2c(c1)C(=O)C(=O)N2CN1CCCCC1 | inactive | – | – | 300 | – | – | – | – | 100 | – | – | – | – | 100 | 300 | – | – | 300 | – |
| O=C(/N=C/c1cccc([N+](=O)[O-])c1)Nc1ccc2c(c1)C(=O)C(=O)N2CN1CCCCC1 | – | inactive | inactive | – | – | – | inactive | 300 | – | – | – | – | – | – | – | – | – | – | – |
| O=C(/N=C/c1ccc(O)cc1)Nc1ccc2c(c1)C(=O)C(=O)N2CN1CCOCC1 | – | – | – | – | – | Non-toxic | inactive | 300 | 300 | 0 | 0 | 0 | 0 | – | – | 50 | Non-toxic | 300 | 30 |
| COc1ccc(/C=N/C(=O)Nc2ccc3c(c2)C(=O)C(=O)N3CN2CCCCC2)cc1 | inactive | – | inactive | 300 | – | – | – | – | – | – | – | – | – | – | 300 | – | – | – | – |
| CCC1(C)CC(=O)NC1=O (stereo unspecified) [ETHOSUXIMIDE] | – | – | inactive | – | Non-toxic | Non-toxic | inactive | 300 | – | – | – | – | – | – | 100 | – | – | – | – |
| O=C(/N=C/c1ccc([N+](=O)[O-])cc1)Nc1ccc2c(c1)C(=O)C(=O)N2CN1CCOCC1 | – | inactive | – | – | Non-toxic | Non-toxic | inactive | 300 | 100 | – | – | – | – | – | – | – | – | – | – |
| O=C(/N=C/c1ccc(Br)cc1)Nc1ccc2c(c1)C(=O)C(=O)N2CN1CCOCC1 | inactive | – | – | 300 | Non-toxic | Non-toxic | – | – | 100 | – | – | – | – | – | 300 | – | – | – | – |
| COc1ccc(/C=N/C(=O)Nc2ccc3c(c2)C(=O)C(=O)N3CN2CCOCC2)cc1 | – | inactive | inactive | – | – | – | inactive | 300 | – | – | – | – | – | 300 | – | – | – | 300 | – |
| O=C(/N=C/c1ccc([N+](=O)[O-])cc1)Nc1ccc2c(c1)C(=O)C(=O)N2CN1CCCCC1 | – | – | – | 100 | – | – | – | 300 | 30 | 0 | 25 | 50 | 0 | 300 | 300 | 0 | Non-toxic | 300 | – |
| Cc1ccc(/C=N/C(=O)Nc2ccc3c(c2)C(=O)C(=O)N3CN2CCCCC2)cc1 | inactive | – | inactive | – | – | – | inactive | – | – | – | – | – | – | – | 300 | – | – | – | – |
